Measurements: paper PMC8406200, “SAMase of Bacteriophage T3 Inactivates Escherichia coli’s Methionine S-Adenosyltransferase by Forming Heteropolymers” (mBio, 2021)

T1: E. coli MAT (EcMAT) (Escherichia coli, UniProt P0A817)
T1 construct: gene metK; C-terminal His6 tag, full length, pET24a, BL21(DE3); homotetramer (dimer of dimers), ~43 kDa subunit
T1 sequence (P0A817 2-384): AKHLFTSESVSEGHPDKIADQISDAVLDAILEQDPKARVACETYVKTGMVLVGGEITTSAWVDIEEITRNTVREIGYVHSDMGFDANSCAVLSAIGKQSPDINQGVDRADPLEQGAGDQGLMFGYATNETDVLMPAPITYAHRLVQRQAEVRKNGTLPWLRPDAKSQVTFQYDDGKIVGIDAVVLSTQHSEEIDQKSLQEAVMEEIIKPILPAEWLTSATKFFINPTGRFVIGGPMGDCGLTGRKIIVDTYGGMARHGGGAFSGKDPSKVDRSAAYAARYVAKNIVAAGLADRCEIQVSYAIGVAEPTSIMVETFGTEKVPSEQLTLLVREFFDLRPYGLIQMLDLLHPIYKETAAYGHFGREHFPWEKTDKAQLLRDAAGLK

T2: N. gonorrhea MAT (NgMAT) (Neisseria gonorrhoeae, UniProt Q5FAC0)
T2 construct: gene metK
T2 sequence (Q5FAC0 1-389): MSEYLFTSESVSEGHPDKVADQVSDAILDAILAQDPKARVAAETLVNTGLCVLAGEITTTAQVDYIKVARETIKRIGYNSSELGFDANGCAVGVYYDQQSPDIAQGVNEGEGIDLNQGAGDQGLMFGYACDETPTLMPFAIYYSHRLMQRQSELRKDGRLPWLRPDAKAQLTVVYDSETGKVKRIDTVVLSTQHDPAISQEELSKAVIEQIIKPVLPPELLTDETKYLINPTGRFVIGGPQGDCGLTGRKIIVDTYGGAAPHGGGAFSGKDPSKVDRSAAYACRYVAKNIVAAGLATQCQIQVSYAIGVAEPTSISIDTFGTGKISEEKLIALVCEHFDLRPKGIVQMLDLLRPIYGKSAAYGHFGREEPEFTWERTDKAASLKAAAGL

T3: U. urealyticum MAT (UuMAT) (Ureaplasma urealyticum, UniProt A0ABM9XK24)
T3 construct: gene metK
T3 sequence (A0ABM9XK24 1-376): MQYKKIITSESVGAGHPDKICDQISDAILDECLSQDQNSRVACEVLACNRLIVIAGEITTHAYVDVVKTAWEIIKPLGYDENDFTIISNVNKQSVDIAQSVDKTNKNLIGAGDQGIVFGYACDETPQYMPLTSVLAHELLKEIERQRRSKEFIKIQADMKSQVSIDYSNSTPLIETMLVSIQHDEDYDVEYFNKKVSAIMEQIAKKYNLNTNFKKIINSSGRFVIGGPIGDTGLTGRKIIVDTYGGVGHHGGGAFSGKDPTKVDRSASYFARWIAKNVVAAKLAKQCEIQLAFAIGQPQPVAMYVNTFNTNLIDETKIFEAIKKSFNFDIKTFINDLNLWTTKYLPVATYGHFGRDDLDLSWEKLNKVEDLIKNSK

B1: S-Adenosylmethionine lyase (SAMase) of bacteriophage T3, C-terminal His-tagged (enzyme)
chain: MIFTKEPAHVFYVLVSAFRSNLCDEVNMSRHRHMVSTLRAAPGLYGSVESTDLTGCYREAISSAPTEEKTVRVRCKDKAQALNVARLACNEWEQDCVLVYKSQTHTAGLVYAKGIDGYKAERLPGSFQEVPKGAPLQGCFTIDEFGRRWQVQ
notes: S-adenosylmethionine lyase (SAMase) of bacteriophage T3, UniProt P07693; gene synthesized de novo with six His codons at the 3' end; anticipated monomer size around 17 kDa; Dimer by SEC, cross-linking and cryo-EM; also called T3 SAMase; 6×His-tagged SAMase; not shown: His6, C-terminal, kept
B2: E. coli methionine S-adenosyltransferase (MAT), recombinant, C-terminal His6 (enzyme, E. coli MG1655, UniProt P0A817 1-384, looked up)
chain: MAKHLFTSESVSEGHPDKIADQISDAVLDAILEQDPKARVACETYVKTGMVLVGGEITTSAWVDIEEITRNTVREIGYVHSDMGFDANSCAVLSAIGKQSPDINQGVDRADPLEQGAGDQGLMFGYATNETDVLMPAPITYAHRLVQRQAEVRKNGTLPWLRPDAKSQVTFQYDDGKIVGIDAVVLSTQHSEEIDQKSLQEAVMEEIIKPILPAEWLTSATKFFINPTGRFVIGGPMGDCGLTGRKIIVDTYGGMARHGGGAFSGKDPSKVDRSAAYAARYVAKNIVAAGLADRCEIQVSYAIGVAEPTSIMVETFGTEKVPSEQLTLLVREFFDLRPYGLIQMLDLLHPIYKETAAYGHFGREHFPWEKTDKAQLLRDAAGLK
notes: Homotetramer (dimer of dimers); also called EcMAT; E. coli MAT; source: E. coli BL21(DE3) (pET24a), purified (Ni-NTA, SEC)

Legend:
E. coli MAT (EcMAT) [1] = target: T1, E. coli MAT (EcMAT); assay: HPLC (SCX, […] nm) of SAM formation; type: biochemical; conditions: 80 μM ATP, 1 mM methionine, 250 nM enzyme; 25 mM HEPES pH 7.5, 100 mM KCl, 10 mM MgCl2, 1 mM DTT; 37°C; no SAMase
E. coli MAT (EcMAT) [2] = target: T4, E. coli MAT (EcMAT) (Escherichia coli, UniProt P0A817, D132P/V133T/I178V/I211V/A214P, form not given); assay: HPLC (SCX, […] nm) of SAM / MTA formation; type: biochemical; conditions: mutant EcMAT; methionine as co-substrate; pH 7.5, 10 mM MgCl2, 37°C; W26L as printed (position doubtful, probably W216L)
T4 construct: gene metK; C-terminal His6 tag, full length, pET24a, BL21(DE3); homotetramer (dimer of dimers), ~43 kDa subunit

N. gonorrhea MAT (NgMAT) = target: T2, N. gonorrhea MAT (NgMAT); assay: HPLC (SCX, […] nm) of SAM / MTA formation; type: biochemical; conditions: 80 μM ATP, 1 mM methionine, 250 nM enzyme; pH 7.5, 10 mM MgCl2, 37°C
[3] = target: T3, U. urealyticum MAT (UuMAT); assay: HPLC (SCX, […] nm) of SAM / MTA formation; type: biochemical; conditions: 80 μM ATP, 1 mM methionine, 250 nM enzyme; pH 7.5, 10 mM MgCl2, 37°C
[4] = target: the molecule itself; assay: SEC; SAMase alone on Superdex 200 Increase 10/300 GL against protein standards; natively purified and refolded SAMase; 25 mM Tris pH 8.0, 150 mM KCl, 1 mM DTT
[5] = target: B2; assay: cryo-EM structure; refolded SAMase and E. coli MAT mixed 1:1 (160 μM monomer each) with 500 μM SAM, preincubated 48 h, high-molecular-weight SEC peak; single-particle, no symmetry imposed (C1); conditions: both partners purified
[6] = target: the molecule itself; assay: as above

T4 sequence (P0A817 2-384 D132P/V133T/I178V/I211V/A214P, form open): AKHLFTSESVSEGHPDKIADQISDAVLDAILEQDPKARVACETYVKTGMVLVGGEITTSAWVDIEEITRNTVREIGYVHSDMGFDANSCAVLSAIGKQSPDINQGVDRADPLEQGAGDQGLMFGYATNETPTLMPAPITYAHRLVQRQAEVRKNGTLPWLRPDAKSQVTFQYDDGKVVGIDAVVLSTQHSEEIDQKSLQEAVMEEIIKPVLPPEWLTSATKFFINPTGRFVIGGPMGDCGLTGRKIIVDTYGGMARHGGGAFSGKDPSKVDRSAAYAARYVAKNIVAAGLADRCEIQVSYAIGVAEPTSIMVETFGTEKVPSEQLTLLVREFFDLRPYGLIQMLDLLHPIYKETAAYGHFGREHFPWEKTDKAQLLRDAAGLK

Question: With `Nc1ncnc2c1ncn2[C@@H]1O[C@H](COP(=O)(O)OP(=O)(O)OP(=O)(O)O)[C@@H](O)[C@H]1O` [ATP] as the molecule, how does the “HPLC (SCX, 254 nm) of SAM formation” value (E. coli MAT (EcMAT) [1]) read?
Answer: The value was “Synthesis of SAM from ATP and methionine by E. coli MAT was conducted in the absence”.

Question: What about the “HPLC (SCX, 254 nm) of SAM / MTA formation” value (E. coli MAT (EcMAT) [2]) of the same molecule?
Answer: Its value is “mutant E. coli MAT (EcMAT mut) was measured either alone (blue trace, rate of SAM production”.

Question: What about the “HPLC (SCX, 254 nm) of SAM / MTA formation” value (N. gonorrhea MAT (NgMAT)) of the same molecule?
Answer: The value was “Synthesis of SAM from ATP and methionine of MAT proteins was conducted”.

Question: What about the “HPLC (SCX, 254 nm) of SAM / MTA formation” value [3] of the same molecule?
Answer: The value was “Synthesis of SAM from ATP and methionine of MAT proteins was conducted”.

Question: What does the source list for `CSCC[C@H](N)C(=O)O` [methionine]?
Answer: HPLC (SCX, 254 nm) of SAM formation (E. coli MAT (EcMAT) [1]): Synthesis of SAM from ATP and methionine by E. coli MAT was conducted in the absence; HPLC (SCX, 254 nm) of SAM / MTA formation (N. gonorrhea MAT (NgMAT)): Synthesis of SAM from ATP and methionine of MAT proteins was conducted; HPLC (SCX, 254 nm) of SAM / MTA formation [3]: Synthesis of SAM from ATP and methionine of MAT proteins was conducted

Question: What does the source list for B1?
Answer: stoichiometry N [4]: 2; binding result [5]: binds

Question: Which “stoichiometry N” value [6] does the source give for B2 here?
Answer: The value was 4.
